The source of these data is article PMC6023986, “Interactions Between Emodin and Efflux Transporters on Rat Enterocyte by a Validated Ussing Chamber Technique” (Frontiers in Pharmacology, 2018).

Usually Papp stands for a coefficient for how fast a substance crosses the barrier.

One data set concerns the target T1, MRP3 (Rattus norvegicus, UniProt O88563).
T1 construct: intestinal segments including duodenum, jejunum, ileum, and colon from anesthetized rats were immediately removed by surgery; from tissue; host or cells: stripped rat intestine (jejunum and ileum in validation; jejunum for the emodin studies)
The data set is described as follows: Ussing chamber bidirectional transport, model validation for MRP3 (teniposide substrate, benzbromarone inhibitor). Format: in vitro ADME. To be noted: jejunum and ileum, benzbromarone 470 μM, teniposide as substrate. From the text:
(§1) The four intestinal segments including duodenum, jejunum, ileum, and colon from anesthetized rats were immediately removed by surgery and washed with KRB solution. Each section of the intestinal segments was then placed in cold (on ice), bubbled (O2:CO2 95:5) KRB buffer. The four intestinal segments were then cut into 2 cm pieces, respectively, and serosas were removed by blunt dissection. Peyer’s patches were excluded from the experiment by visually identified. The stripped tissues were mounted in chambers with exposed surface area of 0.49 cm^2. Temperature of the chambers was maintained at 37 ± 0.5°C. Each of the half-cells in the chambers was filled with 5 mL fresh KRB buffer (pH 6.5). Tissue viability was continuously controlled by potential difference (PD). Tissue with electrical values less than 2 mV was refused ([Moazed and Hiebert, 2007]; [Heinen et al., 2013]).
Digoxin, pravastatin, and teniposide were employed as the test substrates of P-gp, MRP2, and MRP3. […] The experiments were started after 30 min equilibration time, by changing the KRB buffer on both sides; 5 mL KRB solution with different test compounds was filled in the mucosal or serosal compartment; meanwhile, equal volume fresh buffer was added to the other compartment. […] The bidirectional transport studies with specific inhibitors were assessed to validate this model whether or not suitable for P-gp, MRP2, and MRP3 studies. Samples were stored at –80°C until analysis ([Deusser et al., 2013]).
(§2) Frozen samples were adequately vortexed after thawing at the room temperature; 10 μL suitable IS solution was added to 200 μL samples; 200 μL methanol was added after a thorough vortex mixing for 30 s. The mixtures were then vortexed for 30 s and centrifuged at 15,000 rpm for 30 min. Finally, 5 μL of supernatant was injected into the LC-MS/MS system.
(§3) The quantifications of the compounds were performed by the TSQ Quantum Ultra Triple Quadrupole LC-MS/MS system from Thermo Fisher Scientific. Chromatography was carried out using an Agilent Poroshell 120 SB-C18 (2.7 μm, 2.1 mm × 100 mm) column with a Phenomenex AFO-8497 C18 pre-column, operating at 30°C. Adaptive gradient elution methods were applied for the analytes. The flow rate of the mobile phase was kept at 0.2 mL min^-1. Flow was directed to the ion spray interface. All measurements were carried out in negative ESI mode. Ion spray voltage was -2500 V. Vaporizer and capillary temperatures were set at 250 and 350°C, respectively. Auto sampler temperature was set at 10°C. Sheath gas and aux gas were set at 30 and 15 Arb, respectively. […] Peak integrations and calibrations were carried out using LC Quan 2.5.2 software from Thermo Fisher Scientific.
(§4) The Q (accumulative quantity), Papp (apparent permeability), Er (efflux ratio), Pr (Papp ratio), and Err (Er ratio) across the excited rat intestinal segments in the Ussing chamber were calculated using the following equations ([Li et al., 2012]; [Huang et al., 2016]): […]
(§5) where Cn (nM) is the concentration of the drug at the time point (n), Q (nM) is the accumulated absorption amount, A is the exposed surface area of the intestine (0.49 cm^2), dQ/dt (nM⋅s^-1) is the amount of the drug transported, and C0 (nM) is the initial concentration of the test drug. Experiments were performed in batches, so control groups were set as one for each batch.

Data set [1] has as its system P-gp. The data set is described as follows: Influence of emodin on P-gp function: digoxin bidirectional transport in the presence of emodin (Ussing chamber). To be noted: rat jejunum; for Papp at 25 μM: rat. Format: in vitro ADME.
Excerpt: as §1
In this study, the effects of the three efflux transporters on emodin intestinal absorption were investigated. Meanwhile, the influence of emodin on intestinal P-gp, MRP2, and MRP3 functions were also discussed. Solutions with three concentrations (low, middle, and high) of emodin were filled in the mucosal or serosal compartment to measure the bidirectional transport characteristic. […] In the emodin impact experiments, digoxin, pravastatin, and teniposide were employed as P-gp, MRP2, and MRP3 substrates. Changes of the bidirectional transport characteristic were measured before and after adding emodin to the mucosal side.
as §2, §3, §4, §5

For data set [2], the system named is P-gp. The data set is described as follows: in vitro. To be noted: rat.
Method: The quantifications of the compounds were performed by the TSQ Quantum Ultra Triple Quadrupole LC-MS/MS system from Thermo Fisher Scientific. […] Adaptive gradient elution methods were applied for the analytes. The flow rate of the mobile phase was kept at 0.2 mL min^-1. Flow was directed to the ion spray interface. All measurements were carried out in negative ESI mode. Ion spray voltage was -2500 V. Vaporizer and capillary temperatures were set at 250 and 350°C, respectively. Auto sampler temperature was set at 10°C. Sheath gas and aux gas were set at 30 and 15 Arb, respectively. […] Peak integrations and calibrations were carried out using LC Quan 2.5.2 software from Thermo Fisher Scientific.
The next data set concerns the target MRP2 (Rattus norvegicus, UniProt Q63120). The data set is described as follows: Ussing chamber bidirectional transport, model validation for MRP2 (pravastatin substrate, MK571 inhibitor). In kind it is in vitro ADME. Further details: intestinal segments including duodenum, jejunum, ileum, and colon from anesthetized rats were immediately removed by surgery; from tissue; host or cells: stripped rat intestine (jejunum and ileum in validation; jejunum for the emodin studies). To be noted: jejunum and ileum, MK571 186 μM, pravastatin as substrate.
Excerpt: as §1, with “(PD).” for “(PD). Tissue with electrical values less than 2 mV was refused ([Moazed and Hiebert, 2007]; [Heinen et al., 2013]).”
Digoxin, pravastatin, and teniposide were employed as the test substrates of P-gp, MRP2, and MRP3. […] The experiments were started after 30 min equilibration time, by changing the KRB buffer on both sides; 5 mL KRB solution with different test compounds was filled in the mucosal or serosal compartment; meanwhile, equal volume fresh buffer was added to the other compartment. […] The bidirectional transport studies with specific inhibitors were assessed to validate this model whether or not suitable for P-gp, MRP2, and MRP3 studies.
as §2
as §3, with “Chromatography was carried out using an Agilent Poroshell 120 SB-C18 (2.7 μm, 2.1 mm × 100 mm) column with a Phenomenex AFO-8497 C18 pre-column, operating at 30°C.” left out
as §5

Where two headings read alike, the source gives them in different places.

Sequence of MRP2 (Q63120 whole entry, the tested form may be a part): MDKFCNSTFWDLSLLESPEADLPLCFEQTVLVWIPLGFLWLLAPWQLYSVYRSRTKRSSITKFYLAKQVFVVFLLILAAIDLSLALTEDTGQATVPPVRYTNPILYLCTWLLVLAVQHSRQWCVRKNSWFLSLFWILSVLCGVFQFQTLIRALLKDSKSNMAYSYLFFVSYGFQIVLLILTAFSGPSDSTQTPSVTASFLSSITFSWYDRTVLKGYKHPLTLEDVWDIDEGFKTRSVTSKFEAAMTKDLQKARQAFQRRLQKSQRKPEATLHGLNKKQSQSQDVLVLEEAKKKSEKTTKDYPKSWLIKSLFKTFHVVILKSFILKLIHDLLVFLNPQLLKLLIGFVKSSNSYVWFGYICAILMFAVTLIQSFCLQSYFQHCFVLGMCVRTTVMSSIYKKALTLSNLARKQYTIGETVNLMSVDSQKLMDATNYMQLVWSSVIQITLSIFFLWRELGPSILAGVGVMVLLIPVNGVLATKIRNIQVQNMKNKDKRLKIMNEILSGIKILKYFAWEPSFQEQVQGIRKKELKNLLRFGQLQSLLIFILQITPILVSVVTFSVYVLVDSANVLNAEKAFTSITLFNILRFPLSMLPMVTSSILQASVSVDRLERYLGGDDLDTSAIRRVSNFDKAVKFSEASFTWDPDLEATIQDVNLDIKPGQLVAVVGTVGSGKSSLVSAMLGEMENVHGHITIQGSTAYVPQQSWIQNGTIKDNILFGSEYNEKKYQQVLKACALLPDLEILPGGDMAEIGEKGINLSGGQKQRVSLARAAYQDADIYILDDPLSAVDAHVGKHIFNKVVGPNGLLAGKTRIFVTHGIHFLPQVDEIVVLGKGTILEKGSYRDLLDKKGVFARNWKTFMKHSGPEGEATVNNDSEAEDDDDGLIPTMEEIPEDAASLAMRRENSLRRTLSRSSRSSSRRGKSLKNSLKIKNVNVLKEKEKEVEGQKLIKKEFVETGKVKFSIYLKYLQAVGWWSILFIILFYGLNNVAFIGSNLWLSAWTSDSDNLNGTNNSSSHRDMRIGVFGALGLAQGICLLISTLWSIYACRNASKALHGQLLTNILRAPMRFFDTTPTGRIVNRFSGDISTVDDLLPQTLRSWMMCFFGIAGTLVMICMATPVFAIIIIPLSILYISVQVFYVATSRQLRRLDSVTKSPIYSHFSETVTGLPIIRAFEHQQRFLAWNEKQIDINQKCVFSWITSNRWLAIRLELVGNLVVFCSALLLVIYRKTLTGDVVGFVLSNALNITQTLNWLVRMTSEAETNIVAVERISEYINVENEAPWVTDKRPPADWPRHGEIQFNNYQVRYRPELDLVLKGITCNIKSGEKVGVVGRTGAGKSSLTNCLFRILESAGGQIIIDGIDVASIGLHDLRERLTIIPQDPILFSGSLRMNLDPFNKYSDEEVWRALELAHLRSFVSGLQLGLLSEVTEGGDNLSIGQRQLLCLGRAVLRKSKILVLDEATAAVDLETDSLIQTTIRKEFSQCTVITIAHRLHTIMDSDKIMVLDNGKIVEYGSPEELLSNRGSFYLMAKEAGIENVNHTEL
T1 sequence (O88563 whole entry): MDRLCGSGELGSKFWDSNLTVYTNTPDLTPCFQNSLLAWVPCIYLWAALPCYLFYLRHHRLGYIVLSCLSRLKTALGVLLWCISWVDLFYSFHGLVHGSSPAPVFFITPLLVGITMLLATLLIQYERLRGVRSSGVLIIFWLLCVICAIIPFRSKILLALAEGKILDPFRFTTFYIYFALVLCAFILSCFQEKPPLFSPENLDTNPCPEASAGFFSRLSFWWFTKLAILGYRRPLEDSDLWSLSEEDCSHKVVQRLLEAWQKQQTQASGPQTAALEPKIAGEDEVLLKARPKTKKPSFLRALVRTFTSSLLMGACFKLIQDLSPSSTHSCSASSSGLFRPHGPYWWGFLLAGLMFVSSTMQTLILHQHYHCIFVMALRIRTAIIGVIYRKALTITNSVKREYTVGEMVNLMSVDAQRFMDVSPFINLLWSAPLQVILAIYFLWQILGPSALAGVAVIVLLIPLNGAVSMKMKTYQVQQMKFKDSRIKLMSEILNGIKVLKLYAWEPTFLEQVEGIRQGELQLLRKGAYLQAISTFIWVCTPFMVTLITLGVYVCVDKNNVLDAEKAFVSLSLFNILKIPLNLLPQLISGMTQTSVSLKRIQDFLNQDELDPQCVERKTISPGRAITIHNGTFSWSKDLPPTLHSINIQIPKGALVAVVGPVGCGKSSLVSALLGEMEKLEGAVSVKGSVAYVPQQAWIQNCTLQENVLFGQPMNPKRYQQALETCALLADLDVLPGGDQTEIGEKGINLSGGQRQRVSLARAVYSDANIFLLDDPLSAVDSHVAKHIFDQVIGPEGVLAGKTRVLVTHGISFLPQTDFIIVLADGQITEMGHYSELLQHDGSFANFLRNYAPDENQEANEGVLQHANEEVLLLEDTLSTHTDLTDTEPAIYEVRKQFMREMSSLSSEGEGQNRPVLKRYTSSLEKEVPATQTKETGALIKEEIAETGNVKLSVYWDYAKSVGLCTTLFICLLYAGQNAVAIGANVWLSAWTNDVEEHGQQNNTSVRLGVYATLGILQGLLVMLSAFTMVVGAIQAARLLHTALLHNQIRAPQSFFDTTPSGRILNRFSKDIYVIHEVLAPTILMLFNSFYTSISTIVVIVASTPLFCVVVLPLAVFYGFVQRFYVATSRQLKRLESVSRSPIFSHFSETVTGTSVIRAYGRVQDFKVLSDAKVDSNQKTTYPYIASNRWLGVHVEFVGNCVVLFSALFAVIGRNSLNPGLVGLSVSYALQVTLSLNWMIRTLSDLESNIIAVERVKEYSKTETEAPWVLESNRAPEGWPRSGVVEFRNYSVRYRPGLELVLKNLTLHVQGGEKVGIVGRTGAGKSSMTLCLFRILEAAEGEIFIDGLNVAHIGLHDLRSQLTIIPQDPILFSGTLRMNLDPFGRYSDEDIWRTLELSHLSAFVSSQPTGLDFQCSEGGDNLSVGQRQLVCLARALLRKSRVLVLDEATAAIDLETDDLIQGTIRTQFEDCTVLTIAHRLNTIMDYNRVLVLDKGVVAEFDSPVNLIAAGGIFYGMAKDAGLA

Consider `CCc1oc2ccccc2c1C(=O)c1cc(Br)c(O)c(Br)c1` [Benzbromarone], for which, at MRP3, the “Inhibition effect on MRP3” value was “significant inhibition effect”.
On to `C[C@H]1O[C@@H](O[C@H]2[C@@H](O)C[C@H](O[C@H]3[C@@H](O)C[C@H](O[C@H]4CC[C@@]5(C)[C@H](CC[C@@H]6[C@@H]5C[C@@H](O)[C@]5(C)[C@@H](C7=CC(=O)OC7)CC[C@]65O)C4)O[C@@H]3C)O[C@@H]2C)C[C@H](O)[C@@H]1O` [Digoxin], for which, in the data set on P-gp [1] (digoxin 25 μM, emodin 185, 370, 740 μM), the “Change of Er values of digoxin after adding emodin” value is recorded as “significant higher”. For the same molecule, the Papp at 25 μM in the data set with P-gp [1] (pH 6.5, digoxin 25 μM, without emodin, read-out: Papp M-S, control) was 91.6 ± 41 ×10⁻⁶ cm/s; with P-gp [1] (pH 6.5, digoxin 25 μM, without emodin, read-out: Papp S-M, control) it was 152 ± 43.9 ×10⁻⁶ cm/s; in the data set with P-gp [1] (pH 6.5, with emodin 185 μM on mucosal side, digoxin 25 μM, emodin 185 μM on mucosal side, read-out: Papp M-S in the presence of emodin), 55.8 ± 29.8 ×10⁻⁶ cm/s; with P-gp [1] (pH 6.5, with emodin 185 μM on mucosal side, digoxin 25 μM, emodin 185 μM on mucosal side, read-out: Papp S-M in the presence of emodin), 257 ± 47.6 ×10⁻⁶ cm/s; in the data set on P-gp [1] (pH 6.5, with emodin 370 μM on mucosal side, digoxin 25 μM, emodin 370 μM on mucosal side, read-out: Papp M-S in the presence of emodin), 49 ± 12.8 ×10⁻⁶ cm/s; in the data set with P-gp [1] (pH 6.5, with emodin 370 μM on mucosal side, digoxin 25 μM, emodin 370 μM on mucosal side, read-out: Papp S-M in the presence of emodin), 461 ± 191 ×10⁻⁶ cm/s. The Papp at 25 μM in the data set on P-gp [1] (pH 6.5, with emodin 740 μM on mucosal side, digoxin 25 μM, emodin 740 μM on mucosal side, read-out: Papp M-S in the presence of emodin) worked out at 20.4 ± 7.6 ×10⁻⁶ cm/s; with P-gp [1] (pH 6.5, with emodin 740 μM on mucosal side, digoxin 25 μM, emodin 740 μM on mucosal side, read-out: Papp S-M in the presence of emodin), 142 ± 29.7 ×10⁻⁶ cm/s. The Papp with P-gp [2] (pH 6.5, Papp M-S, control, rat colon, without inhibitor) turned out to be 63.1 ± 33.1 ×10⁻⁶ cm/s; in the data set with P-gp [2] (pH 6.5, Papp M-S, control, rat duodenum, without inhibitor), 72.5 ± 32.8 ×10⁻⁶ cm/s; in the data set on P-gp [2] (pH 6.5, Papp M-S, control, rat ileum, without inhibitor), 43.1 ± 15 ×10⁻⁶ cm/s; with P-gp [2] (pH 6.5, Papp M-S, control, rat jejunum, without inhibitor), 57.8 ± 11.2 ×10⁻⁶ cm/s; in the data set with P-gp [2] (pH 6.5, Papp S-M, control, rat colon, without inhibitor), 137 ± 66.3 ×10⁻⁶ cm/s; in the data set with P-gp [2] (pH 6.5, Papp S-M, control, rat duodenum, without inhibitor), 186 ± 144 ×10⁻⁶ cm/s. Also, the Papp turned out to be 228 ± 136 ×10⁻⁶ cm/s in the data set with P-gp [2] (pH 6.5, Papp S-M, control, rat ileum, without inhibitor); 270 ± 125 ×10⁻⁶ cm/s in the data set with P-gp [2] (pH 6.5, Papp S-M, control, rat jejunum, without inhibitor); 45.3 ± 23.2 ×10⁻⁶ cm/s in the data set on P-gp [2] (pH 6.5, with verapamil 220 μM, mucosal side, Papp M-S, with inhibitor, rat duodenum, with verapamil 220 μM on mucosal side); 191 ± 90.5 ×10⁻⁶ cm/s with P-gp [2] (pH 6.5, with verapamil 220 μM, mucosal side, Papp M-S, with inhibitor, rat ileum, with verapamil 220 μM on mucosal side); 119 ± 58.5 ×10⁻⁶ cm/s with P-gp [2] (pH 6.5, with verapamil 220 μM, mucosal side, Papp M-S, with inhibitor, rat jejunum, with verapamil 220 μM on mucosal side); 79.7 ± 32.2 ×10⁻⁶ cm/s in the data set with P-gp [2] (pH 6.5, with verapamil 220 μM, mucosal side, Papp S-M, with inhibitor, rat duodenum, with verapamil 220 μM on mucosal side). Further, the Papp amounted to 157 ± 108 ×10⁻⁶ cm/s in the data set with P-gp [2] (pH 6.5, with verapamil 220 μM, mucosal side, Papp S-M, with inhibitor, rat ileum, with verapamil 220 μM on mucosal side); 96.4 ± 86.4 ×10⁻⁶ cm/s in the data set with P-gp [2] (pH 6.5, with verapamil 220 μM, mucosal side, Papp S-M, with inhibitor, rat jejunum, with verapamil 220 μM on mucosal side); 189 ± 34.3 ×10⁻⁶ cm/s in the data set on P-gp [2] (pH 6.5, with verapamil 440 μM, mucosal side, Papp M-S, with inhibitor, rat colon, with verapamil 440 μM on mucosal side); 191 ± 40.1 ×10⁻⁶ cm/s in the data set with P-gp [2] (pH 6.5, with verapamil 440 μM, mucosal side, Papp S-M, with inhibitor, rat colon, with verapamil 440 μM on mucosal side).
As for `CN(C)C(=O)CCSC(SCCC(=O)O)c1cccc(/C=C/c2ccc3ccc(Cl)cc3n2)c1` (stereo not drawn) [MK571], the “Inhibition effect on MRP2” value on MRP2 was “significant inhibition effect”.
